This passage reports IC50 results from patent publication US12187728B2 (Raze Therapeutics, Inc., priority 2015, dated 2025).

The structures appear in SMILES notation. Where only a bound is given, the exact number is not on record here.

The target of the test is T1, Human MTHFD2 (Homo sapiens, UniProt P13995).
T1 construct: residues 36-350 in Uniport ID P13995; His6 (N); made in house; host or cells: E. coli
T1 sequence (P13995 36-350): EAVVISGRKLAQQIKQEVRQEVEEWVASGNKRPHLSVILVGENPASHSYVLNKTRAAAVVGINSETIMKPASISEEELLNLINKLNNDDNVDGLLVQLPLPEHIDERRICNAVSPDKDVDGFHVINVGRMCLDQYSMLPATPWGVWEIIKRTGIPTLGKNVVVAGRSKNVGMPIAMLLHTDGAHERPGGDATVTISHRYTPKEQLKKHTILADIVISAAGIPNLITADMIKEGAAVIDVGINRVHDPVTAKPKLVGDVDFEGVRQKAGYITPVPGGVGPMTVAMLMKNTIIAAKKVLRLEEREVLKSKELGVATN
The test can be described thus: MTHFD2 Activity Assay (dehydrogenase activity, diaphorase/resazurin coupled fluorescence). Format: biochemical. The conditions noted are these: inhibitory activity (IC50 and/or binding constant); 0.2 nM MTHFD2, 11 concentrations. The method, boiled down:
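Steps: compound + 0.2 nM enzyme, 15 min, pH 8.0 Hepes buffer; add 70 μM CH2-THF, 1 mM NAD+, 100 μM resazurin, diaphorase; 30 min; quench with EDTA; read fluorescence. Data normalized to DMSO (100%) and no-enzyme (0%) wells.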
With `C[C@@H](Nc1nc2c(c(=O)n(Cc3ccc(Cl)c(Cl)c3)c(=O)n2C)n1C)C(=O)O` [Example 169, (R)-2-(1-(3,4-dichlorobenzyl)-3,7-dimethyl-2,6-dioxo-2,3,6,7-tetrahydro-1H-purin-8-ylamino)propanoic acid], the half-inhibitory concentration (IC50) lay within 10 to 1000 nM.
In the case of `Cc1ccc2[nH]c(Cn3c(=O)c4c(nc(N)n4C)n(C)c3=O)cc2c1` [Example 232, 8-amino-3,7-dimethyl-1-((5-methyl-1H-indol-2-yl)methyl)-1H-purine-2,6(3H,7H)-dione] it was over 10000 nM; in that of `Cn1c(N[C@H]2C[C@H](CO)C2)nc2c1c(=O)n(Cc1cc3ccccc3[nH]1)c(=O)n2C` [Example 295, 1-((1H-indol-2-yl)methyl)-8-((1R,3R)-3-(hydroxymethyl)cyclobutylamino)-3,7-dimethyl-1H-purine-2,6(3H,7H)-dione], 10 to 1000 nM.
For `Cn1c(C(O)C2CCC(C(=O)O)CC2)nc2c1c(=O)n(Cc1ccc(Cl)c(Cl)c1)c(=O)n2C` (centres unmarked) [Example 270, 4-((1-(3,4-dichlorobenzyl)-3,7-dimethyl-2,6-dioxo-2,3,6,7-tetrahydro-1H-purin-8-yl)(hydroxy)methyl)cyclohexanecarboxylic acid] the value was 1000 to 5000 nM.
For `Cn1c(N2CCCC(N)C2)nc2c1c(=O)n(Cc1cc3c(Cl)cccc3[nH]1)c(=O)n2C` (centres unmarked) [Example 371, 8-(3-aminopiperidin-1-yl)-1-((4-chloro-1H-indol-2-yl)methyl)-3,7-dimethyl-1H-purine-2,6(3H,7H)-dione] the value was 10 to 1000 nM; for `Cn1c(N[C@H]2CC[C@@H](C(=O)O)C2)nc2c1c(=O)n(Cc1ccc3sccc3c1)c(=O)n2C` [Example 87, (1R,3S)-3-{[1-(1-benzothiophen-5-ylmethyl)-3,7-dimethyl-2,6-dioxo-2,3,6,7-tetrahydro-1H-purin-8-yl]amino}cyclopentane-1-carboxylic acid], 10 to 1000 nM; for `CC(C)C(N)c1nc2c(c(=O)n(Cc3cc4c(Cl)cccc4[nH]3)c(=O)n2C)n1C` (centres unmarked) [Example 437, 8-(1-amino-2-methyl-propyl)-1-[(4-chloro-1H-indol-2-yl)methyl]-3,7-dimethyl-purine-2,6-dione], 10 to 1000 nM.
With `COC(=O)c1ccc(Nc2nc3c(c(=O)n(Cc4cc5c(Cl)cccc5[nH]4)c(=O)n3C)n2C)cn1` [Example 408, Methyl 5-(1-((4-chloro-1H-indol-2-yl)methyl)-3,7-dimethyl-2,6-dioxo-2,3,6,7-tetrahydro-1H-purin-8-ylamino)picolinate], the IC50 fell in the range of 10 to 1000 nM.
For `Cn1c(Nc2ccnc([C@H]3C[C@@H]3C(=O)O)c2)nc2c1c(=O)n(Cc1ccc(Cl)c(Cl)c1)c(=O)n2C` (single isomer, unassigned) [Example 301, (1S,2S)-2-(4-((1-(3,4-dichlorobenzyl)-3,7-dimethyl-2,6-dioxo-2,3,6,7-tetrahydro-1H-purin-8-yl)amino)pyridin-2-yl)cyclopropanecarboxylic acid or (1R,2R)-2-(4-((1-(3,4-dichlorobenzyl)-3,7-dimethyl-2,6-dioxo-2,3,6,7-tetrahydro-1H-purin-8-yl)amino)pyridin-2-yl)cyclopropanecarboxylic acid] the value was 10 to 1000 nM; for `Cn1c(Nc2nccc(O)n2)nc2c1c(=O)n(Cc1ccc(Cl)c(Cl)c1)c(=O)n2C` [Example 138, 1-(3,4-dichlorobenzyl)-8-(4-hydroxypyrimidin-2-ylamino)-3,7-dimethyl-1H-purine-2,6(3H,7H)-dione], 10 to 1000 nM; for `Cn1c(Nc2cccc(C(=O)O)c2)nc2c1c(=O)n(Cc1cc3c(Cl)cccc3[nH]1)c(=O)n2C` [Example 346, 3-[[1-[(4-chloro-1H-indol-2-yl)methyl]-3,7-dimethyl-2,6-dioxo-purin-8-yl]amino]benzoic acid], 10 to 1000 nM.
In the case of `Cn1c(C(N)=O)nc2c1c(=O)n(Cc1ccc(Cl)c(Cl)c1)c(=O)n2C` [Example 244, 1-(3,4-dichlorobenzyl)-3,7-dimethyl-2,6-dioxo-2,3,6,7-tetrahydro-1H-purine-8-carboxamide] it was 1000 to 5000 nM; in that of `Cn1c(N[C@H]2CC[C@@H](N)CC2)nc2c1c(=O)n(Cc1ccc(Cl)c(Cl)c1)c(=O)n2C` [Example 39, (±)-1-[(3,4-dichlorophenyl)methyl]-3,7-dimethyl-8-{[(cis)-4-aminocyclohexyl]amino}-2,3,6,7-tetrahydro-1H-purine-2,6-dione], 1000 to 5000 nM.
Molecule `C[C@H](O)CNc1nc2c(c(=O)n(Cc3ccc(C(F)(F)F)cc3)c(=O)n2C)n1C` [Example 36, 8-{[(2S)-2-hydroxypropyl]amino}-3,7-dimethyl-1-{[4-(trifluoromethyl)phenyl]methyl}-2,3,6,7-tetrahydro-1H-purine-2,6-dione] gave an IC50 of 5000 to 10000 nM.
For `CNC(=O)CCc1cccc(Nc2nc3c(c(=O)n(Cc4cc5c(Cl)cccc5[nH]4)c(=O)n3C)n2C)n1` [Example 330, 3-(6-(1-((4-chloro-1H-indol-2-yl)methyl)-3,7-dimethyl-2,6-dioxo-2,3,6,7-tetrahydro-1H-purin-8-ylamino)pyridin-2-yl)-N-methylpropanamide] the value was 10 to 1000 nM; for `Cn1c(N[C@H]2CCC[C@@H]2O)nc2c1c(=O)n(Cc1cc3c(Cl)cccc3[nH]1)c(=O)n2C` [Example 403, 1-((4-chloro-1H-indol-2-yl)methyl)-8-((1S,2S)-2-hydroxycyclopentylamino)-3,7-dimethyl-1H-purine-2,6(3H,7H)-dione], 10 to 1000 nM.
For `Cn1c(NCCCO)nc2c1c(=O)n(-c1ccc(Cl)c(Cl)c1)c(=O)n2C` [Example 62, 1-(3,4-dichlorophenyl)-8-[(3-hydroxypropyl)amino]-3,7-dimethyl-2,3,6,7-tetrahydro-1H-purine-2,6-dione] the value was over 10000 nM.
For `Cn1c(N[C@H]2C[C@@H](O)C2)nc2c1c(=O)n(Cc1ccc(Cl)c(Cl)c1)c(=O)n2C` [Example 66, 1-[(3,4-dichlorophenyl)methyl]-3,7-dimethyl-8-{[(cis)-3-hydroxycyclobutyl]amino}-2,3,6,7-tetrahydro-1H-purine-2,6-dione] the value was 10 to 1000 nM; for `Cn1c(Nc2ccncc2)nc2c1c(=O)n(Cc1cc3c(C(F)(F)F)cccc3[nH]1)c(=O)n2C` [Example 404, 3,7-dimethyl-8-(pyridin-4-ylamino)-1-((4-(trifluoromethyl)-1H-indol-2-yl)methyl)-1H-purine-2,6(3H,7H)-dione], 10 to 1000 nM.
`CNC(=O)CCc1nccc(Nc2nc3c(c(=O)n(Cc4cc5c(Cl)cccc5[nH]4)c(=O)n3C)n2C)n1` [Example 415, 3-(4-(1-((4-chloro-1H-indol-2-yl)methyl)-3,7-dimethyl-2,6-dioxo-2,3,6,7-tetrahydro-1H-purin-8-ylamino)pyrimidin-2-yl)-N-methylpropanamide]: the IC50 fell in the range of 10 to 1000 nM.
In the case of `Cn1c(Nc2ccc(C(=O)O)cc2)nc2c1c(=O)n(Cc1cc3c(Cl)cccc3[nH]1)c(=O)n2C` [Example 331, 4-[[1-[(4-chloro-1H-indol-2-yl)methyl]-3,7-dimethyl-2,6-dioxo-purin-8-yl]amino]benzoic acid] it was 10 to 1000 nM.
For `Cn1c(=O)c2c(nc(CCN)n2C)n(C)c1=O` [Example 394, 8-(2-aminoethyl)-1,3,7-trimethyl-1H-purine-2,6(3H,7H)-dione] the value was 5000 to 10000 nM; for `Cn1c(NC2(CO)CCCC2)nc2c1c(=O)n(Cc1ccc(C(F)(F)F)cc1)c(=O)n2C` [Example 128, 8-(1-(hydroxymethyl)cyclopentylamino)-3,7-dimethyl-1-(4-(trifluoromethyl)benzyl)-1H-purine-2,6(3H,7H)-dione], over 10000 nM.
In the case of `Cn1c(NC2(CO)CCCC2)nc2c1c(=O)n(Cc1ccc(Cl)c(Cl)c1)c(=O)n2C` [Example 124, 1-(3,4-dichlorobenzyl)-8-(1-(hydroxymethyl)cyclopentylamino)-3,7-dimethyl-1H-purine-2,6(3H,7H)-dione] it was 10 to 1000 nM; in that of `Cn1c(N[C@@H]2CCNC2)nc2c1c(=O)n(Cc1ccc(Cl)c(Cl)c1)c(=O)n2C` [Example 60, 1-[(3,4-dichlorophenyl)methyl]-3,7-dimethyl-8-{[(3R)-pyrrolidin-3-yl]amino}-2,3,6,7-tetrahydro-1H-purine-2,6-dione], 1000 to 5000 nM.
In the case of `Cn1c(CCN)nc2c1c(=O)n(Cc1cc3c(Cl)cccc3[nH]1)c(=O)n2C` [Example 386, 8-(2-aminoethyl)-1-((4-chloro-1H-indol-2-yl)methyl)-3,7-dimethyl-1H-purine-2,6(3H,7H)-dione], the half-maximal inhibitory concentration (IC50) lay within 10 to 1000 nM.
For `C[C@H](CCO)Nc1nc2c(c(=O)n(Cc3ccc(Cl)c(Cl)c3)c(=O)n2C)n1C` [Example 27, 1-[(3,4-dichlorophenyl)methyl]-8-{[(2R)-4-hydroxybutan-2-yl]amino}-3,7-dimethyl-2,3,6,7-tetrahydro-1H-purine-2,6-dione] the value was 10 to 1000 nM; for `Cn1c(NCCCCO)nc2c1c(=O)n(Cc1ccc(Cl)c(Cl)c1)c(=O)n2C` [Example 28, 1-[(3,4-dichlorophenyl)methyl]-8-[(4-hydroxybutyl)amino]-3,7-dimethyl-2,3,6,7-tetrahydro-1H-purine-2,6-dione], 10 to 1000 nM.
In the case of `CCN(CC)C(=O)CCc1nccc(Nc2nc3c(c(=O)n(Cc4cc5c(Cl)cccc5[nH]4)c(=O)n3C)n2C)n1` [Example 426, 3-(4-(1-((4-chloro-1H-indol-2-yl)methyl)-3,7-dimethyl-2,6-dioxo-2,3,6,7-tetrahydro-1H-purin-8-ylamino)pyrimidin-2-yl)-N,N-diethylpropanamide] it was 10 to 1000 nM.

One may read the IC50 as the concentration needed to halve the response being measured. A high value points to lower potency.
